Measurements as given in US11103454B2, “Wax foamable vehicle and pharmaceutical compositions thereof” (VYNE THERAPEUTICS INC., priority 2007, dated 2021).

Description: In one or more embodiments, the foamable composition includes a potent solvent, in addition to or in place of one of the hydrophobic solvents, polar solvents or emollients of the composition. A potent solvent is a solvent other than mineral oil that solubilizes a specific active agent substantially better than a hydrocarbon solvent such as mineral oil or petrolatum.

Solubility in mineral oil	Solubility in dimethyl isosorbide	Solubility in glycofurol	Solubility in propylene glycol	Solubility in isostearic acid	Solubility in polyethylene glycol 400 (PEG 400)	SMILES
< 0.001%						CC(=O)[C@H]1CC[C@H]2[C@@H]3CCC4=CC(=O)CC[C@]4(C)[C@H]3CC[C@]12C [Progesterone]
< 0.001%						Cc1cnc(NC(=O)C2=C(O)c3ccccc3S(=O)(=O)N2C)s1 [Meloxicam]
< 0.01%	more than 1%	more than 1%	more than 1%			CC(=O)N1CCN(c2ccc(OCC3COC(Cn4ccnc4)(c4ccc(Cl)cc4Cl)O3)cc2)CC1 (stereo not drawn) [Ketoconazole]
< 0.01%		more than 1%				CCCC(=O)O[C@]1(C(=O)CO)CC[C@H]2[C@@H]3CCC4=CC(=O)CC[C@]4(C)[C@H]3[C@@H](O)C[C@@]21C [Hydrocortisone butyrate]
< 0.01%	more than 1%					Cc1ncc([N+](=O)[O-])n1CCO [Metronidazole]
< 0.01%		more than 1%				CCCCC(=O)O[C@]1(C(=O)CO)[C@@H](C)C[C@H]2[C@@H]3CCC4=CC(=O)C=C[C@]4(C)[C@@]3(F)[C@@H](O)C[C@@]21C [Betamethasone valerate]
				soluble		CC(C)Cn1cnc2c(N)nc3ccccc3c21 [imiquimod, 4-Amino-1-isobutyl-1H-imidazo[4,5-c] quinoline]
< 0.01%	more than 1%	more than 1%	more than 1%		more than 1%	C/C(=C\C(=O)OCCCCCCCCC(=O)O)C[C@@H]1OC[C@H](C[C@@H]2O[C@H]2[C@@H](C)[C@H](C)O)[C@@H](O)[C@H]1O [Mupirocin]
